Assay results reported in the NIST ThermoML archive (doi:10.1007/s10765-010-0773-1).
± gives the expanded uncertainty stated by the source.

Experiments:
[1] = refractive index (Na D-line) (dimensionless); conditions: 298.15 K; 101.33 kPa; Liquid; Standard Abbe refractometry
[2] = xn = mol fraction of the nth substance listed; conditions: 101 kPa, Liquid, x2 = 0; for mass density: Vibrating tube method; for speed of sound: Pulse-echo method

SMILES | refractive index [1] | mass density ([2]; 288.15 K) [kg/m3] | speed of sound ([2]; 292.87 K) [m/s] | mass density ([2]; 293.15 K) [kg/m3] | speed of sound ([2]; 298.14 K) [m/s] | mass density ([2]; 298.15 K) [kg/m3] | speed of sound ([2]; 303.12 K) [m/s] | mass density ([2]; 303.15 K) [kg/m3] | speed of sound ([2]; 308.1 K) [m/s] | mass density ([2]; 308.15 K) [kg/m3] | mass density ([2]; 313.15 K) [kg/m3] | speed of sound ([2]; 313.27 K) [m/s] | mass density ([2]; 318.15 K) [kg/m3]
BrCBr [dibromomethane] | 1.3851 ± 0.0011 | – | – | – | – | – | – | – | – | – | – | – | –
CCCCCCC [heptane] + BrCBr | – | 688.15 ± 0.25 | 1152.5 ± 1.6 | 683.94 ± 0.25 | 1129.7 ± 1.6 | 679.7 ± 0.25 | 1108.2 ± 1.6 | 675.44 ± 0.25 | 1086.8 ± 1.6 | 671.15 ± 0.25 | 666.83 ± 0.25 | 1064.7 ± 1.6 | 662.48 ± 0.25
